Two molecules from patent publication US20130023534A1, “PYRAZOLYL-PYRIMIDINES AS KINASE INHIBITORS” (priority 2010, published 2013) can be followed below.

The target of the experiment is T1, RIPK2 (Homo sapiens, UniProt O43353).
T1 construct: Full length FLAG His tagged RIPK2 was purified from a Baculovirus expression system; FLAG (N); 6His (N); made in house; host or cells: Spodoptera frugiperda (Sf9) insect cells, baculovirus
The experiment is described as follows: Fluorescent polarization based binding assay at the ATP binding pocket of RIPK2. The following applies: full length FLAG His tagged RIPK2; competition with fluorescently labeled ATP competitive ligand (5 nM); mean of a minimum of 2 experiments; read-out: mean pIC50 (converted). From the text:
A fluorescent polarization based binding assay was developed to quantitate interaction of novel test compounds at the ATP binding pocket of RIPK2, by competition with a fluorescently labeled ATP competitive ligand. Full length FLAG His tagged RIPK2 was purified from a Baculovirus expression system and was used at a final assay concentration of twice the KDapparent. A fluorescent labeled ligand (5-({[2-({[3-({4-[(5-hydroxy-2-methylphenyl)amino]-2-pyrimidinyl}amino)phenyl]carbonyl}amino)ethyl]amino}carbonyl)-2-(6-hydroxy-3-oxo-3H-xanthen-9-yl)benzoic acid, prepared as described below) was used at a final assay concentration of 5 nM. Both the enzyme and ligand were prepared in solutions in 50 mM HEPES pH7.5, 150 mM NaCl, 10 mM MgCl2, 1 mM DTT, and 1 mM CHAPS. Test compounds were prepared in 100% DMSO and 100 nL was dispensed to individual wells of a multiwell plate. Next, 5 ul RIPK2 was added to the test compounds at twice the final assay concentration, and incubated at room temperature for 10 minutes. […] Finally, samples were read on an instrument capable of measuring fluorescent polarization. Test compound inhibition was expressed as percent (%) inhibition of internal assay controls.
For concentration response experiments, normalized data were fit and pIC50s determined using conventional techniques. […]

T1 sequence (O43353 whole entry): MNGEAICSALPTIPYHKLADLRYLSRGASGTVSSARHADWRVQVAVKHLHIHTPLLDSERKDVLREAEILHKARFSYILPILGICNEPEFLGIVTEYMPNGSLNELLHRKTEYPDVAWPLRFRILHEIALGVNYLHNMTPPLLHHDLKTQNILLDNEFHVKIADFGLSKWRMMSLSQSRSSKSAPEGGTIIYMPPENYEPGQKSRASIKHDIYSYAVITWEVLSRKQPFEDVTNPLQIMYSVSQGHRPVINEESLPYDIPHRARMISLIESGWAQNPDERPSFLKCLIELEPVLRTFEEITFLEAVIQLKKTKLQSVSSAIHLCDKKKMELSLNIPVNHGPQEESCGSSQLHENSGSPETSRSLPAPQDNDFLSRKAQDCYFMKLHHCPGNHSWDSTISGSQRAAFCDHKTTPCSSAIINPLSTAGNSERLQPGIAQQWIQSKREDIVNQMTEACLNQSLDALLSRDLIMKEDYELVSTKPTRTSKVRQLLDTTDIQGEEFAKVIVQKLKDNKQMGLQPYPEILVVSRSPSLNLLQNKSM

For `COc1ccc(-n2nc(C(F)(F)F)cc2Nc2ccnc(Nc3ccc(OC)c(OC)c3)n2)cc1` [Example 21, N^2-[3,4-bis(methyloxy)phenyl]-N^4-[1-[4-(methyloxy)phenyl]-3-(trifluoromethyl)-1H-pyrazol-5-yl]-2,4-pyrimidinediamine], the IC50 was 251 nM.

On to `COc1cc(Nc2nccc(Nc3[nH]nc(C)c3C)n2)cc(OC)c1OC` [Example 1, N^4-(3,4-Dimethyl-1H-pyrazol-5-yl)-N^2-[3,4,5-tris(methyloxy)phenyl]-2,4-pyrimidinediamine], for which the IC50 was 10 nM.
